Values of other authors in PMC8513935.

What was measured:
[1] = experimental, compiled by the authors from the literature (the ESI cites the sources)
[2] = derived by the authors as gas->solvent minus gas->water (a hypothetical dry solvent; the ESI), not a two-phase measurement

For `CCCCCCCCCCCCO`, the log K of transfer, gas to solvent ([1]; Hexadecane, 25 C) is given as 6.62 log10 K, the log K of transfer, gas to solvent ([1]; Hexane, 25 C) is given as 6.79 log10 K and the log K of transfer, gas to solvent ([1]; Water, 25 C) is given as 2.44 log10 K. For the same compound, the log K of transfer, water to solvent ([2]; Hexadecane, 25 C) was 4.18 log10 K and the log K of transfer, water to solvent ([2]; Hexane, 25 C) was 4.35 log10 K.

In the case of `CCCCCF`, the log K of transfer, gas to solvent ([1]; Hexadecane, 25 C) is listed as 2.44 log10 K, the log K of transfer, gas to solvent ([1]; Water, 25 C) is listed as -0.21 log10 K and the log K of transfer, water to solvent ([2]; Hexadecane, 25 C) is listed as 2.65 log10 K.

In the case of `Cc1cncc(C)c1`, the log K of transfer, gas to solvent ([1]; Hexadecane, 25 C) is given as 4.21 log10 K, the log K of transfer, gas to solvent ([1]; Water, 25 C) is given as 3.55 log10 K and the log K of transfer, water to solvent ([2]; Hexadecane, 25 C) is given as 0.664 log10 K.

In the case of `CCSCC`, the log K of transfer, gas to solvent ([1]; Chloroform, 25 C) is listed as 4.69 log10 K, the log K of transfer, gas to solvent ([1]; Hexadecane, 25 C) is listed as 3.02 log10 K and the log K of transfer, gas to solvent ([1]; Water, 25 C) is listed as 1.07 log10 K. The log K of transfer, water to solvent ([2]; Chloroform, 25 C) was 3.62 log10 K.

In the case of `C=CCCCCCCC`, the log K of transfer, gas to solvent ([1]; Hexadecane, 25 C) is listed as 4.07 log10 K, the log K of transfer, gas to solvent ([1]; Octan-1-ol, 25 C) is listed as 3.83 log10 K and the log K of transfer, gas to solvent ([1]; Water, 25 C) is listed as -1.51 log10 K. The log K of transfer, water to solvent ([2]; Hexadecane, 25 C) was 5.58 log10 K and the log K of transfer, water to solvent ([2]; Octan-1-ol(dry), 25 C) was 5.34 log10 K.

In the case of `CCCCCCCCl`, the log K of transfer, gas to solvent ([1]; Hexadecane, 25 C) is listed as 4.21 log10 K, the log K of transfer, gas to solvent ([1]; Water, 25 C) is listed as -0.21 log10 K and the log K of transfer, water to solvent ([2]; Hexadecane, 25 C) is listed as 4.42 log10 K.

In the case of `CCCCCc1ccccc1`, the log K of transfer, gas to solvent ([1]; Hexadecane, 25 C) is given as 5.23 log10 K, the log K of transfer, gas to solvent ([1]; Water, 25 C) is given as 0.17 log10 K and the log K of transfer, water to solvent ([2]; Hexadecane, 25 C) is given as 5.06 log10 K.

For `CCCCCCCCCCCCCCCCCCCCO`, the log K of transfer, gas to solvent ([1]; Decan-1-ol, 25 C) is given as 12 log10 K, the log K of transfer, gas to solvent ([1]; Hexadecane, 25 C) is given as 10.7 log10 K and the log K of transfer, gas to solvent ([1]; Hexan-1-ol, 25 C) is given as 12.1 log10 K. The log K of transfer, gas to solvent ([1]; Octan-1-ol, 25 C) was 12.1 log10 K, the log K of transfer, gas to solvent ([1]; Propan-2-ol, 25 C) was 11.9 log10 K and the log K of transfer, gas to solvent ([1]; Water, 25 C) was 1.54 log10 K. The log K of transfer, water to solvent ([2]; Decan-1-ol, 25 C) was 10.5 log10 K, the log K of transfer, water to solvent ([2]; Hexadecane, 25 C) was 9.12 log10 K and the log K of transfer, water to solvent ([2]; Hexan-1-ol, 25 C) was 10.5 log10 K. The log K of transfer, water to solvent ([2]; Octan-1-ol(dry), 25 C) was 10.5 log10 K and the log K of transfer, water to solvent ([2]; Propan-2-ol, 25 C) was 10.3 log10 K.

For `CCCCCCCCCCCCCCCCCCO`, the log K of transfer, gas to solvent ([1]; Decan-1-ol, 25 C) is given as 10.9 log10 K, the log K of transfer, gas to solvent ([1]; Di-n-butyl ether, 25 C) is given as 10.6 log10 K and the log K of transfer, gas to solvent ([1]; Diethyl Ether, 25 C) is given as 11 log10 K. For the same compound, the log K of transfer, gas to solvent ([1]; Hexadecane, 25 C) was 9.66 log10 K, the log K of transfer, gas to solvent ([1]; Hexan-1-ol, 25 C) was 10.9 log10 K and the log K of transfer, gas to solvent ([1]; Octan-1-ol, 25 C) was 10.9 log10 K. The log K of transfer, gas to solvent ([1]; Propan-2-ol, 25 C) was 10.9 log10 K, the log K of transfer, gas to solvent ([1]; Water, 25 C) was 1.78 log10 K and the log K of transfer, water to solvent ([2]; Decan-1-ol, 25 C) was 9.12 log10 K. For the same compound, the log K of transfer, water to solvent ([2]; Di-n-butyl ether, 25 C) was 8.85 log10 K, the log K of transfer, water to solvent ([2]; Diethyl Ether, 25 C) was 9.2 log10 K and the log K of transfer, water to solvent ([2]; Hexadecane, 25 C) was 7.88 log10 K. The log K of transfer, water to solvent ([2]; Hexan-1-ol, 25 C) was 9.16 log10 K, the log K of transfer, water to solvent ([2]; Octan-1-ol(dry), 25 C) was 9.15 log10 K and the log K of transfer, water to solvent ([2]; Propan-2-ol, 25 C) was 9.12 log10 K.

For `c1ccncc1`, the log K of transfer, gas to solvent ([1]; 1,2-Dichloroethane, 25 C) is listed as 4.16 log10 K, the log K of transfer, gas to solvent ([1]; 2-Methylpropan-1-ol, 25 C) is listed as 4.16 log10 K and the log K of transfer, gas to solvent ([1]; 2-Methylpropan-2-ol, 25 C) is listed as 3.96 log10 K. The log K of transfer, gas to solvent ([1]; Benzene, 25 C) was 3.87 log10 K, the log K of transfer, gas to solvent ([1]; Butan-1-ol, 25 C) was 3.95 log10 K and the log K of transfer, gas to solvent ([1]; Butan-2-ol, 25 C) was 4.13 log10 K. The log K of transfer, gas to solvent ([1]; Butanone, 25 C) was 3.94 log10 K, the log K of transfer, gas to solvent ([1]; CCl4, 25 C) was 3.77 log10 K and the log K of transfer, gas to solvent ([1]; Chloroform, 25 C) was 4.73 log10 K. For the same compound, the log K of transfer, gas to solvent ([1]; Cyclohexane, 25 C) was 3.03 log10 K, the log K of transfer, gas to solvent ([1]; Ethanol, 25 C) was 4.18 log10 K and the log K of transfer, gas to solvent ([1]; Hexadecane, 25 C) was 3.02 log10 K. For the same compound, the log K of transfer, gas to solvent ([1]; Hexane, 25 C) was 3.07 log10 K, the log K of transfer, gas to solvent ([1]; Propan-1-ol, 25 C) was 3.99 log10 K and the log K of transfer, gas to solvent ([1]; Propan-2-ol, 25 C) was 3.86 log10 K. The log K of transfer, gas to solvent ([1]; Propanone, 25 C) was 3.97 log10 K, the log K of transfer, gas to solvent ([1]; Toluene, 25 C) was 3.76 log10 K and the log K of transfer, gas to solvent ([1]; Water, 25 C) was 3.44 log10 K. The log K of transfer, water to solvent ([2]; 1,2-Dichloroethane, 25 C) was 0.72 log10 K, the log K of transfer, water to solvent ([2]; 2-Methylpropan-1-ol, 25 C) was 0.72 log10 K and the log K of transfer, water to solvent ([2]; 2-Methylpropan-2-ol, 25 C) was 0.52 log10 K. The log K of transfer, water to solvent ([2]; Acetone, 25 C) was 0.53 log10 K, the log K of transfer, water to solvent ([2]; Benzene, 25 C) was 0.43 log10 K and the log K of transfer, water to solvent ([2]; Butan-1-ol, 25 C) was 0.51 log10 K. The log K of transfer, water to solvent ([2]; Butan-2-ol, 25 C) was 0.69 log10 K, the log K of transfer, water to solvent ([2]; Butanone, 25 C) was 0.5 log10 K and the log K of transfer, water to solvent ([2]; CCl4, 25 C) was 0.33 log10 K. For the same compound, the log K of transfer, water to solvent ([2]; Chloroform, 25 C) was 1.29 log10 K, the log K of transfer, water to solvent ([2]; Cyclohexane, 25 C) was -0.41 log10 K and the log K of transfer, water to solvent ([2]; Ethanol, 25 C) was 0.74 log10 K. The log K of transfer, water to solvent ([2]; Hexadecane, 25 C) was -0.418 log10 K, the log K of transfer, water to solvent ([2]; Hexane, 25 C) was -0.37 log10 K and the log K of transfer, water to solvent ([2]; Propan-1-ol, 25 C) was 0.55 log10 K. For the same compound, the log K of transfer, water to solvent ([2]; Propan-2-ol, 25 C) was 0.42 log10 K and the log K of transfer, water to solvent ([2]; Toluene, 25 C) was 0.32 log10 K.

In the case of `CCCCCN`, the log K of transfer, gas to solvent ([1]; Hexadecane, 25 C) is listed as 3.14 log10 K, the log K of transfer, gas to solvent ([1]; Water, 25 C) is listed as 3 log10 K and the log K of transfer, water to solvent ([2]; Hexadecane, 25 C) is listed as 0.139 log10 K.
